Data taken from ChEMBL document CHEMBL1201862, “PubChem BioAssay data set” (2004).
The source made the active and inactive calls. No stated cut-off is given here; in the data, actives have a measured IC50 and inactives only a lower limit.

Experiments:
[1] = biological target: T1, Sentrin-specific protease 7 (Homo sapiens, UniProt Q9BQF6); format: functional;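 further: Luminescence-based dose-response confirmation of ultra-high-throughput screening hits, measuring inhibition of SENP7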
T1 sequence (Q9BQF6 whole entry): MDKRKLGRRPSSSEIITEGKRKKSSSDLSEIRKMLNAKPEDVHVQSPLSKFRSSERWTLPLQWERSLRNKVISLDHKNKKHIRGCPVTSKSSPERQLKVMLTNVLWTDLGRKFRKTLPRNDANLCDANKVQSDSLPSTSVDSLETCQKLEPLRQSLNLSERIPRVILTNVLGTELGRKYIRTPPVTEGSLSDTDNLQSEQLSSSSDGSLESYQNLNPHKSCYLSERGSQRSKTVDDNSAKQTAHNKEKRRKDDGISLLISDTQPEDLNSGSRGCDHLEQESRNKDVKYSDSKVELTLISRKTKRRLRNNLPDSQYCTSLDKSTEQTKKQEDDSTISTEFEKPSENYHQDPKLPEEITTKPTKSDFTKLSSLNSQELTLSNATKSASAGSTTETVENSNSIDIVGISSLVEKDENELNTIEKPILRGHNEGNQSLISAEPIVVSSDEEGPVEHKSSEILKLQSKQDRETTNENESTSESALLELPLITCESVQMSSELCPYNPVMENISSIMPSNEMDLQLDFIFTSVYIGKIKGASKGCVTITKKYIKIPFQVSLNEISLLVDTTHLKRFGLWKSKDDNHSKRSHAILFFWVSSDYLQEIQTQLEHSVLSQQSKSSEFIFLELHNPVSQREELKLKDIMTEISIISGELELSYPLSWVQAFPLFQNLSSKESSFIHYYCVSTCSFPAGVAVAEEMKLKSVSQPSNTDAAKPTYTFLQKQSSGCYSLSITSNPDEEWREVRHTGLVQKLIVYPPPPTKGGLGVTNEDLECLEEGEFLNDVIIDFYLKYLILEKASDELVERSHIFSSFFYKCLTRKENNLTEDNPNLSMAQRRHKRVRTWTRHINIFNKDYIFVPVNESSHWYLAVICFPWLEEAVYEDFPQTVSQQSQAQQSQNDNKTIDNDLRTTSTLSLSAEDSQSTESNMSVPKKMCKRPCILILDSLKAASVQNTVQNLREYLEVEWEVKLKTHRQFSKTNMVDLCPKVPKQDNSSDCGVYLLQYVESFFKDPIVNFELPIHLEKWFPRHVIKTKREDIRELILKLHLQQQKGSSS

[2] = biological target: T2, Sentrin-specific protease 6 (Homo sapiens, UniProt Q9GZR1); format: functional;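 further: Luminescence-based dose-response confirmatory assay of SENP6 inhibition, following up an ultra-high-throughput screen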
T2 sequence (Q9GZR1 whole entry): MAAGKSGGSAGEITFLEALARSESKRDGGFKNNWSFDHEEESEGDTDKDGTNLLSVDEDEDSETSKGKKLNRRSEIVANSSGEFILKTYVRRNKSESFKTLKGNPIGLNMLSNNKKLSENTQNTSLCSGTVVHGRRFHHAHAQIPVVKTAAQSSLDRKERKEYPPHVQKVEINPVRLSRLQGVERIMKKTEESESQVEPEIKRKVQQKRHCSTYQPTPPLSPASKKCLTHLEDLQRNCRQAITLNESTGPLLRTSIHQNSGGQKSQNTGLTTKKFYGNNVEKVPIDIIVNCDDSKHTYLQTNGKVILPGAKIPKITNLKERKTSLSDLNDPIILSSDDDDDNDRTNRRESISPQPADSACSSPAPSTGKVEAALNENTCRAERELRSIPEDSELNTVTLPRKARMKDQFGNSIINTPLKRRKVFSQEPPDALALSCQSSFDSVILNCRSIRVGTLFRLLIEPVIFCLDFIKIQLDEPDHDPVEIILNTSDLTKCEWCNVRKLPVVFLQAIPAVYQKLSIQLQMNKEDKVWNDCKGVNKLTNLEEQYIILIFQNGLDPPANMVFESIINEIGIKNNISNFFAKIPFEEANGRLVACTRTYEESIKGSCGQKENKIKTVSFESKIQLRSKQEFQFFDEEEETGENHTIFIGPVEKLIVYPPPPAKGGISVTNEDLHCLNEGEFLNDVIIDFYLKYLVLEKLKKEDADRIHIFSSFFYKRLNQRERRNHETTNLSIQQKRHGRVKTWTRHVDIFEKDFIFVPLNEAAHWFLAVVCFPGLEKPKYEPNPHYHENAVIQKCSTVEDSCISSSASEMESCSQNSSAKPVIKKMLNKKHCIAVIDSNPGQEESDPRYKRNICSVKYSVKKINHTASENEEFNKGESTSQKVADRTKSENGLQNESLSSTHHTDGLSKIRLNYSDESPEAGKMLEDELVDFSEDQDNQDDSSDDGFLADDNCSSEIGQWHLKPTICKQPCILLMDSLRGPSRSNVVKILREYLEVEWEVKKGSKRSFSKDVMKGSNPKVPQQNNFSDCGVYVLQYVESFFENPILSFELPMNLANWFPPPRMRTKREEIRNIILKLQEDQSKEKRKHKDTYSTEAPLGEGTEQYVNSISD

In the case of `Cc1ccc2[nH]c(/C(C#N)=C/c3ccc(O)c(O)c3)nc2c1`, the IC50 [1] is reported as 9.9 µM (active) and the IC50 [2] is reported as 27.9 µM (active).

In the case of `CN(C)S(=O)(=O)Oc1cccc(C(=O)Nc2ccc(Cl)c(Cl)c2)c1`, the IC50 [1] is reported as 5.38 µM (active) and the IC50 [2] is reported as 13.6 µM (active).
